SMILES strings stand for the structures. Converted amounts (≈) assume the structure as drawn.

What all share (assay type): functional
Assay [1] relates to Pseudomonas aeruginosa. Briefly: Increase in ampC gene expression in mexCD-oprJ overexpressing Pseudomonas aeruginosa 164M1-94C harboring p26PAD1 plasmid containing ampD gene by RT-PCR relative to wild-type.
The subject of assay [2] is Pseudomonas aeruginosa. In words: Antibacterial activity against Pseudomonas aeruginosa 164.
For assay [3], the system named is Pseudomonas aeruginosa. Briefly: Antibacterial activity against Pseudomonas aeruginosa 164M1.
The subject of assay [4] is Pseudomonas aeruginosa. Briefly: Antibacterial activity against Pseudomonas aeruginosa 164M1-94C overexpressing mexCD-oprJ genes.
For assay [5], the system named is Pseudomonas aeruginosa. In words: Antibacterial activity against Pseudomonas aeruginosa 164M1-84C overexpressing mexCD-oprJ genes.
Assay [6] relates to Pseudomonas aeruginosa. In words: Antibacterial activity against Pseudomonas aeruginosa 164M1 harboring p26PAD1 plasmid containing ampD gene.
The test system of assay [7] is Pseudomonas aeruginosa. Briefly: Antibacterial activity against mexCD-oprJ overexpressing Pseudomonas aeruginosa 164M1-94C harboring p26PAD1 plasmid containing ampD gene.
Assay [8] has as its system Pseudomonas aeruginosa. In words: Antibacterial activity against mexCD-oprJ overexpressing Pseudomonas aeruginosa 164M1-84C harboring p26PAD1 plasmid containing ampD gene.
Assay [9] deals with Pseudomonas aeruginosa. In words: Increase in ampC gene expression in Pseudomonas aeruginosa 164M1 by RT-PCR relative to wild-type.
The test system of assay [10] is Pseudomonas aeruginosa. In words: Increase in ampD gene expression in Pseudomonas aeruginosa 164M1 by RT-PCR relative to wild-type.
Assay [11] relates to Pseudomonas aeruginosa. In words: Increase in ampDh2 gene expression in Pseudomonas aeruginosa 164M1 by RT-PCR relative to wild-type.
Assay [12] has as its system Pseudomonas aeruginosa. Briefly: Increase in ampDh3 gene expression in Pseudomonas aeruginosa 164M1 by RT-PCR relative to wild-type.
The test system of assay [13] is Pseudomonas aeruginosa. Briefly: Increase in ampC gene expression in Pseudomonas aeruginosa 164M1-94C overexpressing mexCD-oprJ genes by RT-PCR relative to wild-type.
Assay [14] has as its system Pseudomonas aeruginosa. Briefly: Increase in ampD gene expression in Pseudomonas aeruginosa 164M1-94C overexpressing mexCD-oprJ genes by RT-PCR relative to wild-type.
The subject of assay [15] is Pseudomonas aeruginosa. In words: Increase in ampDh2 gene expression in Pseudomonas aeruginosa 164M1-94C overexpressing mexCD-oprJ genes by RT-PCR relative to wild-type.
The test system of assay [16] is Pseudomonas aeruginosa. Briefly: Increase in ampDh3 gene expression in Pseudomonas aeruginosa 164M1-94C overexpressing mexCD-oprJ genes by RT-PCR relative to wild-type.
Assay [17] concerns Pseudomonas aeruginosa. In words: Increase in ampC gene expression in Pseudomonas aeruginosa 164M1-84C overexpressing mexCD-oprJ genes by RT-PCR relative to wild-type.
The test system of assay [18] is Pseudomonas aeruginosa. Briefly: Increase in ampD gene expression in Pseudomonas aeruginosa 164M1-84C overexpressing mexCD-oprJ genes by RT-PCR relative to wild-type.
In assay [19] the test system is Pseudomonas aeruginosa. Briefly: Increase in ampDh2 gene expression in Pseudomonas aeruginosa 164M1-84C overexpressing mexCD-oprJ genes by RT-PCR relative to wild-type.
Assay [20] has as its system Pseudomonas aeruginosa. In words: Increase in ampDh3 gene expression in Pseudomonas aeruginosa 164M1-84C overexpressing mexCD-oprJ genes by RT-PCR relative to wild-type.
Assay [21] relates to Pseudomonas aeruginosa. Briefly: Increase in ampC gene expression in Pseudomonas aeruginosa 164M1 harboring p26PAD1 plasmid containing ampD gene by RT-PCR relative to wild-type.

Turning to `CC(C)(O/N=C(\C(=O)N[C@@H]1C(=O)N2C(C(=O)[O-])=C(C[n+]3ccccc3)CS[C@H]12)c1csc(N)n1)C(=O)O` [CEFTAZIDIME], the “fold change (FC)” value in the assay on Pseudomonas aeruginosa [1] is on record as 0.91; in the assay with Pseudomonas aeruginosa [9] it was 99; in the assay on Pseudomonas aeruginosa [10], 1.3; in the assay on Pseudomonas aeruginosa [11], 2.6; in the assay on Pseudomonas aeruginosa [12], 2.1; with Pseudomonas aeruginosa [13] it was 1165. Besides, the “fold change (FC)” value is reported as 1.1 in the assay on Pseudomonas aeruginosa [14]; 2.6 with Pseudomonas aeruginosa [15]; 3.1 in the assay on Pseudomonas aeruginosa [16]; 1324 in the assay on Pseudomonas aeruginosa [17]; 1.2 in the assay on Pseudomonas aeruginosa [18]; 1.5 with Pseudomonas aeruginosa [19]. Also, the figures for the “fold change (FC)” value in the assay on Pseudomonas aeruginosa [20] and with Pseudomonas aeruginosa [21] were 1.6 and 1.1, respectively. Moreover, the minimal inhibitory concentration (MIC) in the assay on Pseudomonas aeruginosa [2] turned out to be 2 µg/mL (≈ 3.66 µM); in the assay with Pseudomonas aeruginosa [3] it was 96 µg/mL (≈ 176 µM); against Pseudomonas aeruginosa [4], 48 µg/mL (≈ 87.8 µM); against Pseudomonas aeruginosa [5] it was 48 µg/mL (≈ 87.8 µM); against Pseudomonas aeruginosa [6], 4 µg/mL (≈ 7.32 µM); against Pseudomonas aeruginosa [7], 2 µg/mL (≈ 3.66 µM). In the assay on Pseudomonas aeruginosa [8], this molecule registered an MIC of 2 µg/mL (≈ 3.66 µM).

As usually defined, the MIC is the lowest concentration that inhibits growth of the organism.

(Values after ChEMBL document CHEMBL1155152, “Increased expression of ampC in Pseudomonas aeruginosa mutants selected with ciprofloxacin” (2007).)
